For 42 compounds, melting point and IC50 results are on record in patent US7476756B2, “Alkyl-, alkenyl- and alkynylcarbamate derivatives, their preparation and their application in therapeutics” (Sanofi-Aventis, priority 2005, dated 2009).

Data set [1] concerns the target T1, enzyme FAAH (Fatty Acid Amido Hydrolase) (Mus musculus, UniProt O08914).
T1 construct: The membrane homogenates are prepared at the time of use by homogenization of the tissues with a Polytron; from tissue; host or cells: mouse brain (minus the cerebellum), membrane homogenate
T1 sequence (O08914 1-579): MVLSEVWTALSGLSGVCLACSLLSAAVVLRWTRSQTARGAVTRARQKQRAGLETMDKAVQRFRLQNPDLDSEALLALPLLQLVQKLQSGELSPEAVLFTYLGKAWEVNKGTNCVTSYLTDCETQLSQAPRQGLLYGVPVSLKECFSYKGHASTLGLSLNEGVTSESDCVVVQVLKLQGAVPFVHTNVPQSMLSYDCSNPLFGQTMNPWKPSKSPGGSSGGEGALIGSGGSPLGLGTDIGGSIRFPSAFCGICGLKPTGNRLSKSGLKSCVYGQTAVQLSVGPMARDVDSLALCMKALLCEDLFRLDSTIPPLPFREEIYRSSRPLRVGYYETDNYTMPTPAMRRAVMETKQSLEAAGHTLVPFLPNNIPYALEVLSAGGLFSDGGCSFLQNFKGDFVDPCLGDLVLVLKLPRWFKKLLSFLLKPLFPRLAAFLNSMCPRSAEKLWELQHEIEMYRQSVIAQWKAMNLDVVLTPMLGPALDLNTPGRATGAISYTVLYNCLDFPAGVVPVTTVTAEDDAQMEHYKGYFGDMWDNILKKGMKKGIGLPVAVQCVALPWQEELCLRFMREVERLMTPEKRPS
Put plainly: radioenzymatic test of FAAH inhibition (hydrolysis of ((1-3H)ethanolamine)-anandamide, mouse brain membrane homogenates). It is filed as biochemical. The note with it: mouse brain membrane homogenate; 10 μM anandamide; 15 minutes at 25° C.; read-out: IC50 (concentration which inhibits the control enzymatic activity of FAAH by 50%). The protocol:
The compounds of the invention have formed the subject of pharmacological trials which make it possible to determine their inhibitory effect on the enzyme FAAH (Fatty Acid Amido Hydrolase).
Thus, mouse brains (minus the cerebellum) are removed and stored at −80° C. The membrane homogenates are prepared at the time of use by homogenization of the tissues with a Polytron in a 10 mM Tris-HCl buffer (pH 8) comprising 150 mM NaCl and 1 mM EDTA. The enzymatic reaction is subsequently carried out in 70 μl of buffer comprising bovine serum albumin free from fatty acids (1 mg/ml). The test compounds, at various concentrations, the ((1-^3H)ethanolamine)-anandamide (specific activity of 15-20 Ci/mmol), diluted to 10 μM with non-radiolabelled anandamide, and the membrane preparation (400 μg of frozen tissue per assay) are successively added. After 15 minutes at 25° C., the enzymatic reaction is halted by addition of 140 μl of chloroform/methanol (2:1). The mixture is stirred for 10 minutes and is then centrifuged at 3500 g for 15 minutes. An aliquot (30 μl) of the aqueous phase comprising the (1-^3H)ethanolamine is counted by liquid scintillation.

Structures are written as SMILES. pIC50: −log10 of the molar value.

Broadly, the melting point is the temperature of the solid-liquid transition. On to `CNC(=O)COC(=O)NC1CCCCCCCCCCC1` [Compound 29, 2-(Methylamino)-2-oxoethyl (cyclododec-1-yl)carbamate], for which the melting point was in the range of 171 to 173 °C.
The same measure, in the same setting: to `CC/C=C\CCCCNC(=O)OCC(=O)NC` [Compound 19, 2-(Methylamino)-2-oxoethyl ((5Z)-oct-5-en-1-yl)carbamate] belongs 69 to 71 °C.
Compound `CCCCCCCCCCC/C=C\CCCCCNC(=O)OCC(=O)NC` [Compound 40, 2-(Methylamino)-2-oxoethyl ((6Z)-octadec-6-en-1-yl)carbamate] returned a melting point of 72 to 74 °C.
The same measure, in the same setting: then `CCCCCNC(=O)OC(C)C(N)=O` (stereo not drawn) [Compound 1, 2-Amino-1-methyl-2-oxoethyl (pent-1-yl)carbamate], with 132 to 134 °C; and `CC/C=C\CCCCCCCCCCNC(=O)OCC(=O)NC` [Compound 32, 2-(Methylamino)-2-oxoethyl ((11Z)-tetradec-11-en-1-yl)carbamate], with 79 to 81 °C.
Regarding `CCC/C=C\CNC(=O)OCC(N)=O` [Compound 4, 2-Amino-2-oxoethyl ((2Z)-hex-2-en-1-yl)carbamate], the melting point is 102 to 104 °C.
`CCCC/C=C\CCNC(=O)OCC(=O)NC` [Compound 16, 2-(Methylamino)-2-oxoethyl ((3Z)-oct-3-en-1-yl)carbamate]: the melting point lay within 62 to 64 °C.
On the same count and under the same terms, to `CCCCCCCCCCCCNC(=O)OCC(=O)NC` [Compound 30, 2-(Methylamino)-2-oxoethyl (dodec-1-yl)carbamate] belongs 103 to 105 °C; to `CCCCCCCCCCCCCCCCCCCNC(=O)OCC(=O)NC` [Compound 41, 2-(Methylamino)-2-oxoethyl ((methyl)octadec-1-yl)carbamate], 85 to 87 °C.
Same read-out and setting: to `CCCCCCCCCCCCCCNC(=O)OCC(=O)NC` [Compound 33, 2-(Methylamino)-2-oxoethyl (tetradec-1-yl)carbamate] belongs 106 to 108 °C.
On the same count and under the same terms, then `CCCCCCCCCC(C)NC(=O)OCC(=O)NC` (stereo not drawn) [Compound 28, 2-(Methylamino)-2-oxoethyl (1-methyldec-1-yl)carbamate], with 71 to 73 °C; and `CCCCCCCCCCCCCCCNC(=O)OCC(=O)NC` [Compound 37, 2-(Methylamino)-2-oxoethyl (pentadec-1-yl)carbamate], with 107 to 109 °C; and `CCCCCC/C=C\CCCCCCCCNC(=O)OCC(=O)NC` [Compound 35, 2-(Methylamino)-2-oxoethyl ((9Z)-hexadec-9-en-1-yl)carbamate], with 69 to 71 °C.
Turning to `CCCCC/C=C/C/C=C/CCCCCCCCCCNC(=O)OCC(=O)NC` [Compound 46, 2-(Methylamino)-2-oxoethyl ((11E,14E)-icosa-11,14-dien-1-yl)carbamate], the melting point was in the range of 58 to 60 °C.
Same read-out and setting: to `CCCC/C=C\CCNC(=O)OCC(N)=O` [Compound 17, 2-Amino-2-oxoethyl ((3Z)-oct-3-en-1-yl)carbamate] belongs 113 to 115 °C.
Still for that read-out and setting: to `CC/C=C/CCNC(=O)OCC(=O)NC` [Compound 8, 2-(Methylamino)-2-oxoethyl ((3E)-hex-3-en-1-yl)carbamate] belongs 88 to 90 °C; to `CCCCCCNC(=O)OCC(=O)NC` [Compound 10, 2-(Methylamino)-2-oxoethyl (hex-1-yl)carbamate], 86 to 88 °C; to `CCC/C=C/CNC(=O)OCC(N)=O` [Compound 3, 2-Amino-2-oxoethyl ((2E)-hex-2-en-1-yl)carbamate], 126 to 128 °C.
`CCCCCCC(C)NC(=O)OCC(=O)NC` (stereo not drawn) [Compound 24, 2-(Methylamino)-2-oxoethyl (1-methylhept-1-yl)carbamate]: the pIC50 in data set [1] was 7.05.
The compound `C=CCCCCCCNC(=O)OCC(=O)NC` [Compound 21, 2-(Methylamino)-2-oxoethyl (oct-7-en-1-yl)carbamate] gave a melting point of 72 to 74 °C.
Still for that read-out and setting: to `CC/C=C/C/C=C/C/C=C/CCCCCCCCCCNC(=O)OCC(=O)NC` [Compound 45, 2-(Methylamino)-2-oxoethyl ((11E,14E,17E)-icosa-11,14,17-trien-1-yl)carbamate] belongs 57 to 59 °C; to `CC/C=C/CCNC(=O)OCC(N)=O` [Compound 6, 2-Amino-2-oxoethyl ((3E)-hex-3-en-1-yl)carbamate], 138 to 140 °C; to `CCCCCCCCCCNC(=O)OC(C)C(N)=O` (stereo not drawn) [Compound 27, 2-Amino-1-methyl-2-oxoethyl (dec-1-yl)carbamate], 133 to 135 °C.
On the same count and under the same terms, then `CC/C=C\CCCCNC(=O)OCC(N)=O` [Compound 18, 2-Amino-2-oxoethyl ((5Z)-oct-5-en-1-yl)carbamate], with 122 to 124 °C; and `CCCCCCCCCCC/C=C\CCCCCNC(=O)OCC(N)=O` [Compound 39, 2-Amino-2-oxoethyl ((6Z)-octadec-6-en-1-yl)carbamate], with 100 to 102 °C; and `CCCCCCCCCNC(=O)OCC(=O)NC` [Compound 25, 2-(Methylamino)-2-oxoethyl (non-1-yl)carbamate], with 95 to 97 °C.
The same measure, in the same setting: then `CCCCCCCCCCCCCCCCCCCNC(=O)OCC(=O)NC` [Compound 43, 2-(Methylamino)-2-oxoethyl (nonadec-1-yl)carbamate], with 113 to 115 °C.
`CCC/C=C\CNC(=O)OCC(=O)NC` [Compound 9, 2-(Methylamino)-2-oxoethyl ((2Z)-hex-2-en-1-yl)carbamate] registered a melting point of 74 to 76 °C.
Still for that read-out and setting: to `CCCCCCCCCCNC(=O)OCC(=O)NC` [Compound 26, 2-(Methylamino)-2-oxoethyl decylcarbamate] belongs 98 to 100 °C.
In the case of `CCCCCCNC(=O)OC(C)C(N)=O` (stereo not drawn) [Compound 11, 2-Amino-1-methyl-2-oxoethyl (hex-1-yl)carbamate], the melting point was in the range of 123 to 125 °C.
Still for that read-out and setting: to `C=CCCCCCCNC(=O)OCC(N)=O` [Compound 20, 2-Amino-2-oxoethyl (oct-7-en-1-yl)carbamate] belongs 122 to 124 °C.
The same measure, in the same setting: then `CCC/C=C/CNC(=O)OCC(=O)NC` [Compound 2, 2-(Methylamino)-2-oxoethyl ((2E)-hex-2-en-1-yl)carbamate], with 85 to 87 °C; and `CC/C=C\CCNC(=O)OCC(=O)NC` [Compound 7, 2-(Methylamino)-2-oxoethyl ((3Z)-hex-3-en-1-yl)carbamate], with 72 to 74 °C.
The same measure, in the same setting: to `CCCCC/C=C/CNC(=O)OCC(=O)NC` [Compound 14, 2-(Methylamino)-2-oxoethyl ((2E)-oct-2-en-1-yl)carbamate] belongs 80 to 82 °C; to `CCCCCC/C=C\CCCCCCCCNC(=O)OCC(N)=O` [Compound 34, 2-Amino-2-oxoethyl ((9Z)-hexadec-9-en-1-yl)carbamate], 127 to 129 °C.
Compound `CCCCC/C=C/CNC(=O)OCC(N)=O` [Compound 15, 2-Amino-2-oxoethyl ((2E)-oct-2-en-1-yl)carbamate] returned a melting point of 126 to 128 °C.
For `CNC(=O)COC(=O)NC1CCCCCCC1` [Compound 22, 2-(Methylamino)-2-oxoethyl (cyclooct-1-yl)carbamate], the melting point was 81 to 83 °C. Besides, the pIC50 in data set [1] is 6.16.
`CC/C=C\CCCCCCCCCCNC(=O)OCC(N)=O` [Compound 31, 2-amino-2-oxoethyl ((11Z)-tetradec-11-en-1-yl)carbamate] showed a melting point of 120 to 123 °C.
With `CCCCCCCCNC(=O)OC(C)C(N)=O` (stereo not drawn) [Compound 23, 2-Amino-1-methyl-2-oxoethyl (oct-1-yl)carbamate], the melting point lay in the range of 130 to 132 °C.
`CCCCCCCNC(=O)OCC(=O)NC` [Compound 13, 2-(Methylamino)-2-oxoethyl (hept-1-yl)carbamate] returned a melting point of 87 to 89 °C. In data set [1], the pIC50 is 7.04.
On the same counts, the results for `CCCCCCCC/C=C/CCCCCCCCCCNC(=O)OCC(=O)NC` [Compound 47, 2-(Methylamino)-2-oxoethyl ((11E)-icosa-11-en-1-yl)carbamate] are 77 to 79 °C and 6.81.
For `CCCCCCCCCCCCC(C)NC(=O)OCC(=O)NC` (stereo not drawn) [Compound 36, 2-(Methylamino)-2-oxoethyl (1-methyltridecyl)carbamate], the melting point fell in the range of 82 to 84 °C.
